What all share (type): biochemical
In one assay the test system is human plasma. Kind of assay: APTT clotting time, human plasma. From the text:
The term “APTT” as used herein means “activated partial thromboplastin times” which is intended to refer to the time elapsed between the formation of an assay solution and the detection of clot formation in the assay solution with use of an APTT assay, i.e., an assay employing an intrinsic pathway activator, such as micronized silica, and a phospholipid component of a thromboplastin reagent (without tissue factor protein) for evaluating coagulation associated with the intrinsic pathway.
PT and APTT clotting times were determined as described in Balasubramanian et al., J. Med. Chem., Vol. 36 (1993), at pp. 300-03, incorporated herein by reference. The whole blood aggregation response of rat platelets to collagen was determined using the impedance procedure for a Model 560-CA Chrono-Log aggregometer (Havertown, Pa.).

Another assay addresses T1, Human FXIa (Homo sapiens, UniProt P03951).
T1 construct: purchased Enzyme Research Labs or Haematologic Technologies Inc
Kind of assay: FXIa enzymatic activity (chromogenic S-2366; fluorescent assay for high potency). The method, then:
Human FXIa activity (Enzyme Research Labs or Haematologic Technologies Inc.) was measured at room temperature in 96 well microtiter plates. The enzyme was incubated with drug for 3 minutes at an enzyme concentration of 0.5 nM in 145 mM NaCl, 5 mM KCl, 1 mg/mL PEG 8000,30 mM HEPES (pH 7.4). After the three minute incubation, 100 μM substrate, S-2366, (L-Pyroglut-Pro-Arg-pNA, Diapharma Group, Inc.) was added and the enzyme velocity was measured using a Molecular Devices Spectro Max Plus (405 nm wavelength) in kinetic mode and analyzed using SOFTmax Pro (ver 3.0) software. For routine compound evaluation, the fraction of control activity (FCA) was plotted as a function of the inhibitor concentration (I), and the curve was fit to the equation FCA /(1+[I]/IC50) to determine the IC50.
A fluorescent assay was performed under similar conditions to evaluate FXIa activity of compounds with high potency (IC50<10 nM). A different substrate (D-Ile-Pro-Arg-AFC.2TFA) and a different concentration of enzyme (0.043 nM) was used. The enzyme velocity was measured using a Molecular Devices fMax fluorescent plate reader (400 nm excitation, 505 nm emission).

The target of a further assay is T2, Plasmin (Homo sapiens, UniProt P00747).
T2 construct: Plasmin (Kabi Vitrum) was measured as for thrombin; purchased Kabi Vitrum
T2 sequence (P00747 581-810 limits assumed): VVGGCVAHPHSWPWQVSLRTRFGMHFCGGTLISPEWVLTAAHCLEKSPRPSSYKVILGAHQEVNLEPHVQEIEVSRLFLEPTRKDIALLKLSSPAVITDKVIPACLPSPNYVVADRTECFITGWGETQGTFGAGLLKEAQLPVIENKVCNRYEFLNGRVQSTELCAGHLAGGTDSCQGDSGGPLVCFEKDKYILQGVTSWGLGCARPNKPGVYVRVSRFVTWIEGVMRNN
T2 sequence (P00747 97-580 partner limits assumed): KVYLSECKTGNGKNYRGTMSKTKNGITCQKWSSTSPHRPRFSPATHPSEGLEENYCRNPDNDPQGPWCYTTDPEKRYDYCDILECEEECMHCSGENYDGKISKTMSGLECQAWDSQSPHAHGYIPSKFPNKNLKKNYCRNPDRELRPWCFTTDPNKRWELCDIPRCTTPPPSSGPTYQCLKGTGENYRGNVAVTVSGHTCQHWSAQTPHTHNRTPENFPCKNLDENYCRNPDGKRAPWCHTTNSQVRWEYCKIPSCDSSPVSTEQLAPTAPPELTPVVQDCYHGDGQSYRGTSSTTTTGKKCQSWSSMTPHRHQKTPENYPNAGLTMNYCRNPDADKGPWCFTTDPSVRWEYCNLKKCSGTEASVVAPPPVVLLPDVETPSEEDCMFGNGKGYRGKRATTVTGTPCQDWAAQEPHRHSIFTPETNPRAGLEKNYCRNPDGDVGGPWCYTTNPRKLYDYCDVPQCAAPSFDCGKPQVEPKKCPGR
Briefly: Selectivity assay plasmin. The settings on record: Table 3.

The text below walks through data of patent US20040180855A1, “Methods of treating thrombosis with reduced risk of increased bleeding times” (priority 2003, published 2004).

Structures are written as SMILES. pIC50: −log10 of the molar value. Where two headings read alike, the source gives them in different places.

T1 sequence (P03951 388-625 limits assumed): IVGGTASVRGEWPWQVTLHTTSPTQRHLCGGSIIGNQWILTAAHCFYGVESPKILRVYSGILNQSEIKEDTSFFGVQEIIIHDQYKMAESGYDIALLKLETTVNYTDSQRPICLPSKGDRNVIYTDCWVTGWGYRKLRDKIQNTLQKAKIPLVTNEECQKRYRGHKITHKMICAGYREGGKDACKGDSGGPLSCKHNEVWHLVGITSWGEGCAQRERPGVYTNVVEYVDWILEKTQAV
T1 sequence (P03951 19-387 partner limits assumed): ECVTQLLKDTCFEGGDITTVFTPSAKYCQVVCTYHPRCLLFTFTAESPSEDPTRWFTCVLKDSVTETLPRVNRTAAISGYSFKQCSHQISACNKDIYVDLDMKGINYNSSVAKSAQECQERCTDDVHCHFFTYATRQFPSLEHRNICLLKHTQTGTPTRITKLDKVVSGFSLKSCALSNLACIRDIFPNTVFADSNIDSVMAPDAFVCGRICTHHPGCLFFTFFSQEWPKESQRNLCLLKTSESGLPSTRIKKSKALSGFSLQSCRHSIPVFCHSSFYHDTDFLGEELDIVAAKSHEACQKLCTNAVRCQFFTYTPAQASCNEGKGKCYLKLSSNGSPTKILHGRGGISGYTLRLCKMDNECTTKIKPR

Take `CC(C)(C)NC(=O)N1CCN(C(=O)N2C(=O)[C@H](CCCNC(=N)N)[C@H]2C(=O)O)CC1` [Example 4]: the “Clotting time APTT (human), concentration that doubles clotting time” value with human plasma was found to be 0.6 µM. Moreover, the pIC50 at Human FXIa (Table 1, Factor XIa, approximate, read-out: IC50(≅)) was roughly 8.55. The IC50 at Human FXIa (Table 3, read-out: IC50 (μM) FXIa) came out at 0.0028 µM. Further, at Human FXIa (from Table 3 IC50 values), the “times more active than the FXa inhibitor for inhibiting Factor XIa” value is recorded as “more than 10,000 times” and the “times more active than the thrombin inhibitor (compound 16A) for inhibiting Factor XIa” value was “greater than 2,000 times”. This compound returned an IC50 against Plasmin of 1.7 µM.
